The test system of experiment [1] is cisplatin-induced spontaneous pain. The experiment is described as follows: Conditioned place preference test for spontaneous pain. The format is in vivo, mice. The settings on record: cisplatin followed by two weeks of daily compound. How it is done:
Spontaneous pain was tested using a conditioning paradigm with retigabine as the conditioned stimulus that was originally described in a rat model (Yang Q, et al. Persistent pain after spinal cord injury is maintained by primary afferent activity. The Journal of Neuroscience. 2014; 34(32):10765-9; Ahmed B, et al. Recent changes in practice of elective percutaneous coronary intervention for stable angina. Circ. Cardiovasc. Qual. Outcomes. 2011; 4(3):300-5.). Retigabine is a […] with a rapid onset of action but only brief duration (45-60 min). […] Mol. Pain. 2010; 6(49); Passmore G M, et al. KCNQ/M currents in sensory neurons: significance for pain therapy. The Journal of Neuroscience, 2003; 23(18):7227-36). Briefly, during pre-conditioning, mice were allowed to freely explore for 15 min the CPP apparatus. The CPP apparatus consisted of 2 chambers (18×20 cm, one dark, one white) connected by a 15 cm hallway (Stoelting, Wood Dale, Ill.). The time spent in the light chamber was recorded. During the conditioning phase, saline was injected intraperitoneally in the morning and the mice were then kept in the dark chamber for 20 min. Three hours later, the analgesic retigabine (#R-100, Alomone laboratory, Jerusalem, Israel) […] the mice were immediately placed in the light chamber for 20 min. Conditioning was repeated for four consecutive days. […]

In the next experiment the test system is rat DRG neurons. The experiment is described as follows: Mitochondrial movement in cultured DRG neurons. The note with it: 100 nM co-administered with cisplatin, 3 hours. The format is cell-based. How it is done:
DRG neurons (Lonza) were cultured for 5-7 days before the mitochondrial transport assay. 24 hrs prior to chemotherapy treatment cells were infected with Bacmam 2.0, which labeled mitochondria with GFP. Cells were treated with cisplatin (20-80 μM)+/−compound 001 (100 nM) for 3 hours. Imaging was performed using Zeiss 3i system. Time lapse images were acquired every 2 seconds over the course of 2 min. Image analysis was performed using Fiji and Multiple Kymograph plugin.

Consider `O=C(NO)c1cnc(NC2(c3ccccc3)CCC(F)(F)CC2)nc1` [compound 001], for which the “change in time spent in retigabine-paired light chamber (spontaneous pain)” value in experiment [1] was “did not develop a preference for the retigabine-paired light chamber”. For the same compound, the “percentage of moving mitochondria in axons (mitochondrial transport)” value with rat DRG neurons is listed as “prevented this cisplatin-induced decrease in mitochondrial transport”.

The values above are taken from patent publication US11013740B2, “Histone deacetylase 6 selective inhibitors for the treatment of cisplatin-induced peripheral neuropathy” (REGENACY PHARMACEUTICALS, LLC, priority 2015, dated 2021).
